The target of this test is Disks large homolog 4 (Mus musculus) (UniProt Q62108). The test is described as follows: Binding affinity to Swiss mouse brain PSD95 domain assessed as inhibition of PSD95-5-HT2A receptor C-terminal decapeptide interaction after overnight incubation by chemiluminescence assay. The test is classed as tissue-based.
Sequence of Disks large homolog 4 (Mus musculus) (Q62108 whole entry, looked up, the tested form may be a part): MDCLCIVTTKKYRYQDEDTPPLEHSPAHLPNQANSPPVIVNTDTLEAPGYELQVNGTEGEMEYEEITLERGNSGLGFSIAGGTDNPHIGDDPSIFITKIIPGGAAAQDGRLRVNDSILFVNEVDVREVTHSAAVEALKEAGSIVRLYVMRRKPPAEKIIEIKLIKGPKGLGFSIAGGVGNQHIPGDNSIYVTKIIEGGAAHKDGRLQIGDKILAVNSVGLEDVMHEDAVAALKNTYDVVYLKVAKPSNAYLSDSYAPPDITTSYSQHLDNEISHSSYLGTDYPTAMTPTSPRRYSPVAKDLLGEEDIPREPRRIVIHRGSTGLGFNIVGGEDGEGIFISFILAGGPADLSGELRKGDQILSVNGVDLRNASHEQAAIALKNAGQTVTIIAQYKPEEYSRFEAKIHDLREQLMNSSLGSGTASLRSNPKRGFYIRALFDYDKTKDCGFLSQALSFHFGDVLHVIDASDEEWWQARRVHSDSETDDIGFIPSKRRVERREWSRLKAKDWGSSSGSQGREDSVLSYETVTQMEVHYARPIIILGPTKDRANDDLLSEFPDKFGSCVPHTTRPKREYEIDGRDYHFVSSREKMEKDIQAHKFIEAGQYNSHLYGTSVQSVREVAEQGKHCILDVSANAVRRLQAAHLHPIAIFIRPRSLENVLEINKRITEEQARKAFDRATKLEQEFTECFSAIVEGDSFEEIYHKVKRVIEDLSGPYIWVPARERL

For the compound `Cc1c(C(=O)NCCN)[nH]c2ccc(C(=O)O)cc12`, the inhibition entry was “Dose-dependent effect”.

For `Cc1c(C(=O)O)[nH]c2ccc(C(=O)O)cc12`, the inhibition result was “Dose-dependent effect”.

As to `Cc1c(C(=O)NCCNC(=O)[C@@H](N)Cc2c[nH]c3ccccc23)[nH]c2ccc(C(=O)O)cc12`, the inhibition entry was “Dose-dependent effect”.

(Values after ChEMBL document CHEMBL1806359, “Synthesis and evaluation of bidentate ligands designed to interact with PDZ domains” (Bioorg Med Chem, 2011).)
